This is an account of results in US20160235727A1, “NOVEL PYRROLIDINE DERIVED BETA 3 ADRENERGIC RECEPTOR AGONISTS” (Merck Sharp & Dohme Corp., priority 2013, published 2016).

SMILES strings stand for the structures.

The test system of one test is rats. The note with it: cited from earlier work.
In the next test the target is T1, human β3-AR (Homo sapiens, UniProt P13945).
T1 construct: expressed in transfected cells; host or cells: CHO (Chinese hamster ovary) cells, stably transfected
The test can be described thus: cAMP functional agonist assay (LANCE TR-FRET) in CHO cells expressing cloned human β3-AR. In kind it is cell-based. The note with it: for EC50: CHO cells stably expressing cloned human β3-adrenoceptor, cAMP release, read-out: Human β3-AR Agonism EC50; for Human β3-AR Agonist Activity (%): percent maximum activation relative to isoproterenol.

Setting [1] is: intravenous, cystometric studies.

T1 sequence (P13945 whole entry): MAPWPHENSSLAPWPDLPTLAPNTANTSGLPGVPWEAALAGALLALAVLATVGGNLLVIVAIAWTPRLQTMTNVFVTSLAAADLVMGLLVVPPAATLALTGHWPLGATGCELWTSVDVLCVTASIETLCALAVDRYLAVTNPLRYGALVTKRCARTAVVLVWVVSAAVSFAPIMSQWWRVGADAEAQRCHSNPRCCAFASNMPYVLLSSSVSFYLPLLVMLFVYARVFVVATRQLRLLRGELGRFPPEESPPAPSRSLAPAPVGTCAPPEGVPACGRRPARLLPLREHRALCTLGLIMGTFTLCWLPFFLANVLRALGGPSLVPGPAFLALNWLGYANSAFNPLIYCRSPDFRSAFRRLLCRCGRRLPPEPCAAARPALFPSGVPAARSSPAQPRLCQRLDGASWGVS

Consider `C[C@H](Cc1ccc2c(c1)OC(C(=O)[O-])(C(=O)[O-])O2)NC[C@H](O)c1cccc(Cl)c1.[Na+].[Na+]` [CL316243], for which, in the test on rats (intravenous administration), the bladder pressure entry is given as “reduces”. Moreover, in the test on rats (setting [1]), the bladder capacity entry is listed as “increases”, the micturition interval entry was “prolongation” and the residual urine volume entry is reported as “without increasing”.

Regarding `COc1ncccc1CN(C)C(=O)c1ccc(C[C@@H]2CC[C@H]([C@H](O)c3ccc(Cl)nc3)N2)cc1` [Example 25-A, 4-(((2S,5R)-5-((R)-(6-chloropyridin-3-yl)(hydroxy)methyl)pyrrolidin-2-yl)methyl)-N-((2-methoxypyridin-3-yl)methyl)-N-methylbenzamide], on human β3-AR, the EC50 came to 0.018 µM and the “Human β3-AR Agonist Activity (%)” value stood at 98%.

Take `Cc1nnc2ccc(CN(C)C(=O)c3ccc(C[C@@H]4CC[C@H]([C@H](O)c5ccc(Cl)nc5)N4)cc3)cn12` [Example 43-A, 4-(((2S,5R)-5-((R)-(6-chloropyridin-3-yl)(hydroxy)methyl)pyrrolidin-2-yl)methyl)-N-methyl-N-((3-methyl-[1,2,4]triazolo[4,3-a]pyridin-6-yl)methyl)benzamide]: on human β3-AR, the EC50 is greater than 10 µM and the “Human β3-AR Agonist Activity (%)” value turned out to be 45%.
